Patent US9700632B2, “Dendrimers, conjugates and methods thereof” (Centre for BioSeparation Technology—VIT, priority 2012, dated 2017)
Converted amounts (≈) assume the structure as drawn.

Tests used:
[1] = test system: HCT-15 human colon cancer cells; assay: cells; conditions: HCT-15, 48 h, read-out: IC50 HCT-15
Description: Cells are incubated for 48 hr with different equivalent doxorubicin concentrations and IC50 values in terms of doxorubicin were calculated using MTT assay.

[2] = test system: PC3 prostate cancer cells; assay: cells; conditions: Homo sapiens, PC-3, 48 h, read-out: IC50 PC3
PC3 cells = assay: MTT cytotoxicity assay of lupeol and dendrimer-lupeol conjugates; type: cell-based; conditions: Homo sapiens, PC-3, 48 h, read-out: percentage inhibition (cytotoxic effect, MTT)
Description: Human prostate cancer cells (PC-3 cells) are obtained from NCCS, Pune, India. The cells are grown in RPMI 1640 medium supplemented with 10% of bovine fetal serum and antibiotics (100 IU of penicillin/[…] of streptomycin). The cells are maintained in a 25 cm^2 T-flask and incubated at 37° C. under 5% CO2 in a humidified atmosphere. The cell viability is measured by staining the cells with trypan blue and counted in a haemocytometer under a light microscope.
The assay is performed in triplicates.
The cytotoxicity is quantitatively estimated by a non-radioactive, colorimetric assay system using a tetrazolium salt, 3-[4,5-dimethylthiazol-2-yl]-2,5-diphenil-tetrazolium bromide (MTT).
The cytotoxic effect of lupeol and the dendrimer lupeol conjugate is determined using PC3 cells. […] Doxorubicin is used as positive control for each experiment. […] This clearly showcases that the increase in cytotoxic activity of the dendrimer-lupeol conjugate is not due to the dendrimer or lupeol alone but because of the conjugate of dendrimer and lupeol.

Structure (SMILES)	IC50 [1] [µg/mL]	IC50 [2] [µg/mL]	inhibition at 10 µg/mL (PC3 cells) [%]
COc1cccc2c1C(=O)c1c(O)c3c(c(O)c1C2=O)C[C@@](O)(C(=O)CO)C[C@@H]3O[C@H]1C[C@H](N)[C@H](O)[C@H](C)O1 [Free doxorubicin, doxorubicin]	4.77 (≈ 8.78 µM)	5.13 (≈ 9.45 µM)	
C=C(C)[C@@H]1CC[C@]2(C)CC[C@]3(C)[C@H](CC[C@@H]4[C@@]5(C)CC[C@H](O)C(C)(C)[C@@H]5CC[C@]43C)[C@@H]12 [free lupeol, lupeol]			7.74
